Data on two molecules can be found in patent publication US4956489A (Bioeurope, priority 1987, dated 1990).

Series [1] is described as follows: solubility in water. The series is classed as physicochemical. The settings on record: in water at 25° C. and pH 6. The source says: (§1) The amounts of residual solvent present in the final aqueous phase are removed by extraction with 2 liters of ethyl acetate. […] The aqueous phase is then concentrated by evaporation under vacuo, after which it is lyophilized. The structure of the product was verified by elemental analysis and proton NMR spectroscopy.
(b) The lactyl-L-tyrosine ethyl ester is purified and deesterified according to the procedure described in Example 1 in relation to L-malyl-L-tyrosine ethyl ester, to obtain L-lactyl-L-tyrosine monosodium salt.

Series [2] is described as follows: solubility in ethyl acetate. Type of series: physicochemical. The settings on record: extraction of the aqueous phase with ethyl acetate.
Source text: as §1

Setting [3] is: read-out: solubility in water, equivalent molar.

Like-named read-outs stand apart in the source and are kept apart here.

As for `C[C@H](O)C(=O)N[C@@H](Cc1ccc(O)cc1)C(=O)[O-].[Na+]`, the results for the solubility in series [1] (read-out: solubility in water) and in series [1] (setting [3]) were at least 330 mg/mL and at least 1200 mM, respectively.

As for `O=C([O-])C[C@H](O)C(=O)N[C@@H](Cc1ccc(O)cc1)C(=O)[O-].[Na+].[Na+]` [L-malyl-L-tyrosine disodium salt], the “solubility in ethyl acetate” value in series [2] is “not soluble in ethyl acetate”. The solubility in series [1] (read-out: solubility in water) worked out at 820 mg/mL; in series [1] (setting [3]) it was 2400 mM.

For orientation: solubility means the concentration that dissolves in the medium under given conditions.
